# Measured values from patent US10538498B2, “1,3,4-oxadiazole sulfonamide derivative compounds as histone deacetylase 6 inhibitor, and the pharmaceutical composition comprising the same” (Chong Kun Dang Pharmaceutical Corp., priority 2015, dated 2020).
# Target: T1, human recombinant HDAC6 (Homo sapiens, UniProt Q9UBN7)
# T1 construct: purchased Calbiochem 382180
# T1 sequence (Q9UBN7 1-1215): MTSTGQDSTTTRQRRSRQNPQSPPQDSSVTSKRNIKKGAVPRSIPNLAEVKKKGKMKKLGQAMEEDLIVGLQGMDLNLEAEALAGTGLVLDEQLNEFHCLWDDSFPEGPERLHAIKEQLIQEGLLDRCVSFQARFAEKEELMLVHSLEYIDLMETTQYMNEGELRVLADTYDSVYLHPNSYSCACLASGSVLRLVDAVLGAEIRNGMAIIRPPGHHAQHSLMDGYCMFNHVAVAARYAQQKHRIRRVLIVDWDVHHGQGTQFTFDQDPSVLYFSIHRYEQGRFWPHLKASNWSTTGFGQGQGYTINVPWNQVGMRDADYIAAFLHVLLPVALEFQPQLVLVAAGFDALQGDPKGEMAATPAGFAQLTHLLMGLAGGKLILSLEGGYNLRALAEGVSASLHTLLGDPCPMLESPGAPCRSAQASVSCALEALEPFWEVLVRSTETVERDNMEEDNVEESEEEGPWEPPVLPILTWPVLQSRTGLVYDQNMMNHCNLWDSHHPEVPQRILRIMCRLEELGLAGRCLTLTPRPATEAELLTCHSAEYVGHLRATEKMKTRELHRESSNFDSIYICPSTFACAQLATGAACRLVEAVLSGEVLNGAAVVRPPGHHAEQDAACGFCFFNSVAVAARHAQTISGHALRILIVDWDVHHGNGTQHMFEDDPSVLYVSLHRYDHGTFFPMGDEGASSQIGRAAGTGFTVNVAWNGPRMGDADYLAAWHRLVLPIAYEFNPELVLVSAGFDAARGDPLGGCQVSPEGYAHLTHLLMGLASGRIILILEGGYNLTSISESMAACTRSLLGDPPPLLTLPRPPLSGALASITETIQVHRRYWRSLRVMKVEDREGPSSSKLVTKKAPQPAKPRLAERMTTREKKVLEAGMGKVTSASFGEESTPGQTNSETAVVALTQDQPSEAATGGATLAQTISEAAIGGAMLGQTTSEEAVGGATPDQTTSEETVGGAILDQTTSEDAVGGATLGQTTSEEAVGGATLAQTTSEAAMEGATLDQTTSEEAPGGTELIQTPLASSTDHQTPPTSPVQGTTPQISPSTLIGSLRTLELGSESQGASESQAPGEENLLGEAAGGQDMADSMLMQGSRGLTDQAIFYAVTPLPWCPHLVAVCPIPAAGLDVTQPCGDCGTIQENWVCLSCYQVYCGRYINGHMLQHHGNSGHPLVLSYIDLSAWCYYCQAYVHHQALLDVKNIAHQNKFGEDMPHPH
# Assay: HDAC6 enzyme activity inhibition assay (HDAC Fluorimetric Drug Discovery Kit)
# Assay type: biochemical
# Conditions: for HDAC6 selectivity (fold): HDAC1 vs HDAC6; for IC50: same protocol as the HDAC1 enzyme activity test
# Method in brief: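 Recombinant enzyme (0.3 μg) was incubated with 5-fold serially diluted compound and 10 μM Fluor de Lys-SIRT1 substrate for 60 min at 30° C. Developer II was then added for 30 min, fluorescence read at Ex 360/Em 460, and IC50 values were calculated.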
SMILES,HDAC6 selectivity (fold),IC50 [nM]
"O=S(=O)(CCN1CCCCC1)N(Cc1ccc(-c2nnc(C(F)F)o2)cc1)c1ccccc1 [Compound 11629, N-(4-(5-(difluoromethyl)-1,3,4-oxadiazol-2-yl)benzyl)-N-phenyl-2-(piperidin-1-yl)ethane-1-sulfonamide]",1041,96
"CN1CCN(CCS(=O)(=O)N(Cc2ccc(-c3nnc(C(F)F)o3)cc2)c2ccccc2)CC1 [Compound 11630, N-(4-(5-(difluoromethyl)-1,3,4-oxadiazol-2-yl)benzyl)-2-(4-methylpiperazin-1-yl)-N-phenylethane-1-sulfonamide]",3225,31
"CC(C)(C)OC(=O)N1CCN(CCS(=O)(=O)N(Cc2ccc(-c3nnc(C(F)F)o3)cc2)c2ccccc2)CC1 [Compound 11631, tert-butyl 4-(2-(N-(4-(5-(difluoromethyl)-1,3,4-oxadiazol-2-yl)benzyl)-N-phenylsulfamoyl)ethyl)piperazine-1-carboxylate]",436,229
"C[C@@H]1CN(CCS(=O)(=O)N(Cc2ccc(-c3nnc(C(F)F)o3)cc2)c2ccccc2)C[C@H](C)N1 [Compound 11632, N-(4-(5-(difluoromethyl)-1,3,4-oxadiazol-2-yl)benzyl)-2-((3S,5R)-3,5-dimethylpiperazin-1-yl)-N-phenylethane-1-sulfonamide]",1587,63
"CS(=O)(=O)N(Cc1ccc(-c2nnc(C(F)F)o2)cc1)c1cncnc1 [Compound 11636, N-(4-(5-(difluoromethyl)-1,3,4-oxadiazol-2-yl)benzyl)-N-(pyrimidin-5-yl)methanesulfonamide]",862,116
"CC(=O)N1CCN(CCCS(=O)(=O)N(Cc2ccc(-c3nnc(C(F)F)o3)cc2)c2ccccc2)CC1 [Compound 11656, 3-(4-acetylpiperazin-1-yl)-N-(4-(5-(difluoromethyl)-1,3,4-oxadiazol-2-yl)benzyl)-N-phenylpropane-1-sulfonamide]",1587,63
"O=S(=O)(CCCN1CCCCC1)N(Cc1ccc(-c2nnc(C(F)F)o2)cc1)c1ccccc1 [Compound 11657, N-(4-(5-(difluoromethyl)-1,3,4-oxadiazol-2-yl)benzyl)-N-phenyl-3-(piperidin-1-yl)propane-1-sulfonamide]",1219,82
"CN1CCN(CCCS(=O)(=O)N(Cc2ccc(-c3nnc(C(F)F)o3)cc2)c2ccccc2)CC1 [Compound 11658, N-(4-(5-(difluoromethyl)-1,3,4-oxadiazol-2-yl)benzyl)-3-(4-methylpiperazin-1-yl)-N-phenylpropane-1-sulfonamide]",2500,40
"O=S(=O)(CCN1CCN(Cc2ccccc2)CC1)N(Cc1ccc(-c2nnc(C(F)F)o2)cc1)c1ccccc1 [Compound 11663, 2-(4-benzylpiperazin-1-yl)-N-(4-(5-(difluoromethyl)-1,3,4-oxadiazol-2-yl)benzyl)-N-phenylethanesulfonamide]",578,173
"C[C@@H]1CN(CCCS(=O)(=O)N(Cc2ccc(-c3nnc(C(F)F)o3)cc2)c2ccccc2)C[C@H](C)N1C [Compound 11665, N-(4-(5-(difluoromethyl)-1,3,4-oxadiazol-2-yl)benzyl)-N-phenyl-3-((3R,5S)-3,4,5-trimethylpiperazin-1-yl)propane-1-sulfonamide]",5263,19
"CS(=O)(=O)N(Cc1ccc(-c2nnc(C(F)F)o2)cn1)CC12CC3CC(CC(C3)C1)C2 [Compound 11669, N-((adamantan-1-yl)methyl)-N-((5-(5-(difluoromethyl)-1,3,4-oxadiazol-2-yl)pyridin-2-yl)methyl)methanesulfonamide]",900,111
"O=C(OCC1CCN(CCS(=O)(=O)N(Cc2ccc(-c3nnc(C(F)F)o3)cc2)c2ccccc2)CC1)C(F)F [Compound 11676, (1-(2-(N-(4-(5-(difluoromethyl)-1,3,4-oxadiazol-2-yl)benzyl)-N-Phenylsulfamoyl)ethyl)piperidin-4-yl)methyl 2,2-difluoroacetate]",1408,71
"CC(C)(C)OC(=O)N(C(=O)C(F)F)C1CCN(CCS(=O)(=O)N(Cc2ccc(-c3nnc(C(F)F)o3)cc2)c2ccccc2)CC1 [Compound 11677, tert-butyl 2,2-difluoroacetyl(1-(2-(N-(4-(5-(difluoromethyl)-1,3,4-oxadiazol-2-yl)benzyl)-N-phenylsulfamoyl)ethyl)piperidin-4-yl)carbamate]",1754,57
"O=S(=O)(C1CCN(C2COC2)CC1)N(Cc1ccc(-c2nnc(C(F)F)o2)cc1)c1cccc(Cl)c1 [Compound 11681, N-(3-chlorophenyl)-N-(4-(5-(difluoromethyl)-1,3,4-oxadiazol-2-yl)benzyl)-1-(oxetan-3-yl)piperidine-4-sulfonamide]",6667,15

# Continued by falling IC50, values first:
HDAC6 selectivity (fold),IC50 [nM],SMILES
549,182,"CC1CCN(CCS(=O)(=O)N(Cc2ccc(-c3nnc(C(F)F)o3)cc2)c2ccccc2)CC1 [Compound 11675, N-(4-(5-(difluoromethyl)-1,3,4-oxadiazol-2-yl)benzyl)-2-(4-methylpiperidin-1-yl)-N-phenylethanesulfonamide]"
724,138,"CS(=O)(=O)N(Cc1ccc(-c2nnc(C(F)F)o2)cc1)CC12CC3CC(CC(C3)C1)C2 [Compound 11668, N-((adamantan-1-yl)methyl)-N-(4-(5-(difluoromethyl)-1,3,4-oxadiazol-2-yl)benzyl)methanesulfonamide]"
1724,58,"O=S(=O)(CCN1CCOCC1)N(Cc1ccc(-c2nnc(C(F)F)o2)cc1)c1ccccc1 [Compound 11655, N-(4-(5-(difluoromethyl)-1,3,4-oxadiazol-2-yl)benzyl)-2-morpholino-N-phenylethanesulfonamide]"
2083,48,"CS(=O)(=O)N(Cc1ccc(-c2nnc(C(F)F)o2)cc1)c1cccnc1 [Compound 11628, N-(4-(5-(difluoromethyl)-1,3,4-oxadiazol-2-yl)benzyl)-N-(pyridin-3-yl)methanesulfonamide]"
2083,48,"CS(=O)(=O)N1CCN(CCS(=O)(=O)N(Cc2ccc(-c3nnc(C(F)F)o3)cc2)c2ccccc2)CC1 [Compound 11634, N-(4-(5-(difluoromethyl)-1,3,4-oxadiazol-2-yl)benzyl)-2-(4-(methylsulfonyl)piperazin-1-yl)-N-phenylethane-1-sulfonamide]"
2173,46,"CC(=O)N1CCN(CCS(=O)(=O)N(Cc2ccc(-c3nnc(C(F)F)o3)cc2)c2ccccc2)CC1 [Compound 11633, 2-(4-acetylpiperazin-1-yl)-N-(4-(5-(difluoromethyl)-1,3,4-oxadiazol-2-yl)benzyl)-N-phenylethane-1-sulfonamide]"
4545,22,"Cc1cccc(N(Cc2ccc(-c3nnc(C(F)F)o3)cc2)S(=O)(=O)C2CCN(C3COC3)CC2)c1 [Compound 11682, N-(4-(5-(difluoromethyl)-1,3,4-oxadiazol-2-yl)benzyl)-1-(oxetan-3-yl)-N-(m-tolyl)piperidine-4-sulfonamide]"
